Test results taken from patent publication US8012972B2, “Pyridinecarboxylic acid (2-aminophenyl) amide derivative having urea structure” (Santen Pharmaceutical Co., Ltd., priority 2007, dated 2011).

Assays:
[1] = system: HDAC (HeLa nuclear extract); assay: Test for evaluation of HDAC inhibitory activity (HDAC Fluorimetric Assay/Drug Discovery Kit, Biomol); assay type: biochemical; conditions: final concentration of test compound 30 μM, rates of more than 100% are shown as 100%
Experimental: Using HDAC Fluorimetric Assay/Drug Discovery Kit (manufactured by Biomol), HDAC inhibitory activity of the present compounds was measured according to the protocol included with the kit. The kit contains Buffer, HeLa nuclear extract (includes HDAC), Substrate, Developer and Trichostatin A (an HDAC inhibitor).
A test compound was dissolved in dimethyl sulfoxide, whereby a 2 mg/mL solution was prepared. Then, the resulting solution was diluted with Buffer containing 5% dimethyl sulfoxide, whereby a 150 μM test compound solution was prepared.
1) To a 384-well culture plate, the test compound solution was added in an amount of 2 μL per well.
2) HeLa nuclear extract was diluted 30-fold with Buffer. The resulting solution was added in an amount of 3 μL per well and then, incubation was performed at 37° C. for 2 hours.
3) Substrate was diluted 500-fold with Buffer. […]
5) The fluorescence intensity of each well was measured using multilabel counter ARVO (manufactured by Wallac) with excitation at 360 nm and emission at 460 nm. […]
Enzyme inhibitory rate (%) was calculated using the following equation. (Enzyme Inhibitory Rate(%))=100×[1−{(Fluorescence Intensity of Test Compound Solution)−(Florescence Intensity of Blank)}/{(Florescence Intensity of Control)−(Florescence Intensity of Blank)}] […]

[2] = system: human trabecular meshwork cell line (TM-1 cells); assay: Effect of morphological change on trabecular meshwork cells (cell shape index, CSI); assay type: cell-based; conditions: final concentration 10 μM, 24 hours, control CSI 0.679, lower CSI indicates greater morphological change
Experimental: As a method for evaluating a cellular morphological change, an evaluation system using the cell shape index (hereinafter referred to as “CSI”) as an index has been reported in The Journal of Clinical Investigation, 103, 1141-1150 (1999). Therefore, according to the method described in the above document, an effect of morphological change of the present compounds on trabecular meshwork cells was evaluated.
A human trabecular meshwork cell line (hereinafter referred to as “TM-1 cells”) reported in Investigative Opthalmology & Visual Science, 43, 151-161 (2002) was used.
Culture medium 1: A reagent was prepared by adding fetal bovine serum (10%), L-glutamine (2 mM), amphotericin B (2.5 μg/mL), and gentamicin (25 μg/mL) to Dulbecco's Modified Eagle Medium (hereinafter referred to as “D-MEM”).
Culture medium 2: Fetal bovine serum (3%), L-glutamine (2 mM), amphotericin B (2.5 μg/mL), and gentamicin (25 μg/mL) were added to D-MEM. […]
10) Using Array Scan Vti HCS reader (manufactured by Cellomics), images of stained cells magnified with a 20-fold objective lens were captured in 80 fields (10 fields×8 wells) per test compound addition group.
11) CSI was calculated for each cell and an average value was obtained for each test compound addition group.
CSI was calculated using the following equation. […]

Structure (SMILES): Nc1ccccc1NC(=O)c1ccc(CN(CCCN2CCCCC2)C(=O)NCCc2ccccc2)cn1 [Compound 1-3]
- Enzyme Inhibitory Rate (%) [1]: 100%
- CSI [2]: 0.569
